Here are results for seven compounds from patent publication US6180356A (priority 1998, dated 2001).

One assay concerns the target diphtheria toxin (Corynephage beta, UniProt P00588). The assay can be described thus: biochemical. Type of assay: biochemical, Corynebacterium diphtheriae. To be noted: for inhibition of 3 kD dextran release / pore formation: relative to release in absence of target agent; for inhibition of membrane pore formation (in words): whole diphtheria toxin; for quenching of the fluorescence of the 3 kD dextran: 10 μM inhibitor added before toxin, 3 kD CB-dextran, pH 4.5, control without agent about 75%; for inhibition at 10 µM: read-out: inhibition of 3 kD dextran release / pore formation.

Assay [1] addresses T domain of diphtheria toxin (Corynephage beta, UniProt P00588). Description: biochemical. It counts as biochemical, Corynebacterium diphtheriae. To be noted: for inhibition at 10 µM: read-out: inhibition of T domain membrane pore formation; for quenching of 3 kD CB-dextran: control without inhibitor about 70%.
For assay [2], the system named is diphtheria toxin translocation across Vero cell membranes. As to conditions: Falnes and Olsnes 1995; cited from earlier work.
[3] abbreviates: 10 μM inhibitor, 1.0 μg of toxin.
[4] abbreviates: 10 μM inhibitor, about 5 μg of T domain.

Molecules are shown by their SMILES.

T domain of diphtheria toxin, sequence (P00588 234-410 limits assumed): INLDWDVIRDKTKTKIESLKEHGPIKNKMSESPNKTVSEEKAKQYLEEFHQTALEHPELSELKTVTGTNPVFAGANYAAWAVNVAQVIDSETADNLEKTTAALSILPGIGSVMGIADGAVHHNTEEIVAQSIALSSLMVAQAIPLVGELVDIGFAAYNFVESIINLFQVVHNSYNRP
diphtheria toxin, sequence (P00588 33-567 limits assumed): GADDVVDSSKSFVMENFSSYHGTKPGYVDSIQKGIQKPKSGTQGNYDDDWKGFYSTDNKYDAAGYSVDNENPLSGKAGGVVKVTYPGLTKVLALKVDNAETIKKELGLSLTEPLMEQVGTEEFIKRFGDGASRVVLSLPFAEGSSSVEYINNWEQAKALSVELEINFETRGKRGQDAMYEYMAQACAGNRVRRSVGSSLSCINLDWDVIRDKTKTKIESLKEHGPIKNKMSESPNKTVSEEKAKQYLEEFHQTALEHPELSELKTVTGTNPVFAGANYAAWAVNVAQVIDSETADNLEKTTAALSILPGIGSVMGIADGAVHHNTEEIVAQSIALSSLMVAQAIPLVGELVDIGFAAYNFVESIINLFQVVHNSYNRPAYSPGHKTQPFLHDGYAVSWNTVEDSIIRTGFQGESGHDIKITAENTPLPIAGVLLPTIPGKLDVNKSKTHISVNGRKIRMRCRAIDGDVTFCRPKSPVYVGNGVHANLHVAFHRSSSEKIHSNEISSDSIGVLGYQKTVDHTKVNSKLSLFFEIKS

`Nc1c(S(=O)(=O)O)cc(Nc2ccc(Nc3nc(Cl)nc(Nc4ccccc4S(=O)(=O)O)n3)c(S(=O)(=O)O)c2)c2c1C(=O)c1ccccc1C2=O` [Cibacron Blue, Cibacron Blue F3G-A]: the “quenching for all the dextrans” value at diphtheria toxin (10 μM inhibitor, 1.0 μg of toxin, all the dextrans) came out at 0%. Also, the “inhibition of 3 kD dextran release / pore formation” value at diphtheria toxin (setting [3]) is recorded as “completely inhibited”. Further, the “inhibition of membrane pore formation (in words)” value on diphtheria toxin (10 μM inhibitor) was “Strong inhibition”. The “inhibition of T domain membrane pore formation (in words)” value in assay [1] (setting [4]) is “somewhat less inhibition”. The inhibition at 10 µM in assay [1] was roughly 22%. Further, the “inhibition of diphtheria toxin translocation” value in assay [2] is “inhibitors of diphtheria toxin translocation”.

`O=C(Nc1cc(S(=O)(=O)[O-])cc2cc(S(=O)(=O)[O-])c(N=Nc3cc(Nc4nc(Cl)nc(Nc5ccc(S(=O)(=O)[O-])cc5)n4)ccc3S(=O)(=O)[O-])c(O)c12)c1ccccc1.[Na+].[Na+].[Na+].[Na+]` [Cibacron Red, Cibacron brilliant red 3B-A]: the “quenching of the fluorescence of the 3 kD dextran” value (“quenching … of the 3 kD dextran” for short) on diphtheria toxin (1.0 μg of toxin) came to 0%. For the same compound, the “inhibition of 3 kD dextran release / pore formation” value on diphtheria toxin (setting [3]) stood at 100%. Also, the “inhibition of membrane pore formation (in words)” value on diphtheria toxin (10 μM inhibitor) is “strong inhibition”. In assay [1] (setting [4]), the “inhibition of T domain membrane pore formation (in words)” value is on record as “strong inhibition” and the “quenching of 3 kD CB-dextran” value is reported as “about 9%”. Moreover, the “inhibition of T domain membrane pore formation” value in assay [1] (10 μM inhibitor, about 5 μg of T domain, 3 kD CB-dextran) was 87%.

On to `O=S(=O)(O)c1cc(N=C=S)ccc1/C=C/c1ccc(N=C=S)cc1S(=O)(=O)O` [DIDS], for which the “inhibition of diphtheria toxin translocation” value in assay [2] is listed as “inhibitors of diphtheria toxin translocation”.

With `COc1cc(S(=O)(=O)O)c2ccc3c(S(=O)(=O)O)cc(S(=O)(=O)O)c4ccc1c2c43` [MPT, 8-methoxy-pyrene 1,3,6-trisulfonic acid], the “diphtheria toxin pore formation inhibited (in words)” value at diphtheria toxin (MPT as entrapped reporter, higher toxin concentrations, MPT released less than 3 kD CB-dextran) is on record as “inhibited”.

In the case of `CCN1C(=O)C=CC1=O` [NEM], the “inhibition of diphtheria toxin translocation” value in assay [2] is reported as “inhibitors of diphtheria toxin translocation”.

With `O=S(=O)(O)c1ccc(N=Nc2ccc(N=Nc3c(O)c(S(=O)(=O)O)cc4cc(S(=O)(=O)O)ccc34)c(S(=O)(=O)O)c2)cc1` [Ponceau S, 3-hydroxy-4-[2-sulfo-4(4-sulfophenylazo)phenylazo]-2,7-naphthalenedisulfonic acid], the “quenching … of the 3 kD dextran” value at diphtheria toxin (1.0 μg of toxin) is listed as “about 25%”. For the same compound, at diphtheria toxin (10 μM inhibitor), the “inhibition of membrane pore formation (in words)” value is listed as “moderate inhibition”. Moreover, the inhibition at 10 µM is roughly 67% at diphtheria toxin and roughly 70% in assay [1]. In assay [1] (setting [4]), the “inhibition of T domain membrane pore formation (in words)” value is given as “strong inhibition”. For the same compound, the “quenching of 3 kD CB-dextran” value in assay [1] (setting [4]) is “about 20%”.

With `O=S(=O)([O-])c1ccc2c(N=Nc3ccc(S(=O)(=O)[O-])c4ccccc34)c(O)c(S(=O)(=O)[O-])cc2c1.[Na+].[Na+].[Na+]` [amaranth, 3-Hydroxy-4-[(4-sulfo-1-naphthalenyl)azo]2,7-naphthalenedisulfonic acid trisodium salt], the “quenching … of the 3 kD dextran” value at diphtheria toxin (1.0 μg of toxin) is reported as “about 50%”. On diphtheria toxin (10 μM inhibitor), the “inhibition of membrane pore formation (in words)” value is recorded as “weak inhibitor”. Besides, the inhibition at 10 µM on diphtheria toxin is roughly 30%.
